PMC6635953 (Journal of medicinal chemistry, 2019)

How the values were obtained:
[1] = molecular target: T1, HpMTAN (Helicobacter pylori, UniProt Q9ZMY2); test: Inhibition assay of HpMTAN; type: biochemical; conditions: for preference for HpMTAN (specificity ratio Kd Hs/Hp): affinity for human MTAP relative to HpMTAN; for binding to the catalytic site of HpMTAN: at concentrations of 5 μM inhibitor
T1 sequence (Q9ZMY2 1-230): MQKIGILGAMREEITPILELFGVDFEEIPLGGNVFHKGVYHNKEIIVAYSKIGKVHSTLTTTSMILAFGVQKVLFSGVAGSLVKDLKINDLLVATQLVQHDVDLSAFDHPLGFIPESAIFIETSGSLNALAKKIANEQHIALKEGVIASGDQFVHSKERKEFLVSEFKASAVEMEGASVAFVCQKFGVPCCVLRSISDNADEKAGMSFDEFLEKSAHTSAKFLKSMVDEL

[2] = molecular target: T2, human MTAP (Homo sapiens, UniProt Q13126); test: Inhibition assay of MTAP; type: biochemical; conditions: for binding to the catalytic site of MTAP: at concentrations of 5 μM inhibitor
T2 sequence (Q13126 1-283): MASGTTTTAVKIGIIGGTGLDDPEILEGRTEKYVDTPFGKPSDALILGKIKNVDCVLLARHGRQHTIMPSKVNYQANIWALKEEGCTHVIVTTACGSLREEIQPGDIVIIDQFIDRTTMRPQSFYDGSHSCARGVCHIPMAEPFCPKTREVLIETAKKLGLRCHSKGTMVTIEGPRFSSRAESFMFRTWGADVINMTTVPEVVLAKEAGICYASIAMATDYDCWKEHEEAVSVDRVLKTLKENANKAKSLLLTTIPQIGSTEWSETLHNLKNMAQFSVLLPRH

In the case of `CSC[C@H]1CN(Cc2c[nH]c3c(N)nccc23)C[C@@H]1O` [compound 8, 3-deazaMTDIA], the “increase of dissociation constant relative to MTDIA (1), HpMTAN” value ([1]; compared with 1 (86 pM)) is reported as over 100 fold and the “increase of dissociation constant relative to MTDIA (1), MTAP” value ([2]; compared with 1 (86 pM)) is reported as over 100 fold.

In the case of `C#CCSC[C@H]1CN(Cc2c[nH]c3c(N)ncnc23)C[C@@H]1O` [compound 15], the Kd [1] is reported as 0.026 to 0.055 nM and the “preference for HpMTAN (specificity ratio Kd Hs/Hp)” value [1] is reported as 12- to 36 fold.

For `C#CCCCSC[C@H]1CN(Cc2c[nH]c3c(N)ncnc23)C[C@@H]1O` [compound 16], the Kd [1] was 0.026 to 0.055 nM and the “preference for HpMTAN (specificity ratio Kd Hs/Hp)” value [1] was 12- to 36 fold.

For `CCCCn1cc(CCCSC[C@H]2CN(Cc3c[nH]c4c(N)ncnc34)C[C@@H]2O)nn1` [compound 30], the Kd [1] was 0.026 to 0.055 nM.

`Nc1ncnc2c(CN3C[C@H](CSCCCc4cn(Cc5ccccc5)nn4)[C@@H](O)C3)c[nH]c12` [compound 32] showed a Kd [1] of 0.026 to 0.055 nM.

With `O=c1[nH]ccc2c(CN3C[C@H](CO)[C@@H](O)C3)c[nH]c12` [compound 34] the “binding to the catalytic site of HpMTAN” value [1] was “eliminates binding” and the “binding to the catalytic site of MTAP” value [2] was “eliminates binding”.

In the case of `CSC[C@H]1CN(Cc2c[nH]c3c(=O)[nH]ccc23)C[C@@H]1O` [compound 35], the “binding to the catalytic site of HpMTAN” value [1] is reported as “eliminates binding” and the “binding to the catalytic site of MTAP” value [2] is reported as “eliminates binding”.
